# Measured values reported in a melting point compilation (Tetko et al.; mined from patent text by program, amines drawn as free bases though some values may be those of a salt).
row,Compound,melting point [°C]
1,CCOC(=O)c1c(C(F)(F)F)nc(OCC)c(C(N)=O)c1OCC,103 to 105
2,CCCCN1CCc2c(C)nc3ncnn3c21,72 to 75
3,COC(=O)CCCc1cc2nc(Cl)ccc2n1S(=O)(=O)c1ccc(C(F)(F)F)cc1,99
4,COc1cc(C(=O)N(C)C)ccc1OCCCN1CCC(c2noc3cc(F)ccc23)CC1,126 to 127
5,CC(C(=O)OCc1ccc([N+](=O)[O-])cc1)N(C(=O)OC(C)(C)C)C1CC1 (configuration not stated),117 to 118
6,Clc1nc2nc(Cl)sc2s1,180
7,COc1ccc(C(=O)Nc2ccc(-c3ncc(-c4ccc(NC(=O)C5CCCCCC5)cc4)[nH]3)cc2)cc1,311 to 313
8,CCCc1nc2c(c(C)c(C)n3nnnc23)n1CC(C)(C)NC(=O)NC1CCCCC1,196 to 198
9,CSc1ccc(CSc2nnc(-c3ccc4ncsc4c3)o2)cc1C(F)(F)F,122 to 123
10,COc1cc2c(c3c1OC(C)(C)C3)C(c1cccc(N3CCNC3=O)c1)=NC(C)(C)C2,225 to 227
11,CCSc1cnn(-c2cc(-c3ccnc(Nc4cccc(Cl)c4)n3)ccn2)c(=O)c1Cl,80 to 100
12,CN1CCN(CCCNc2ncc3c(n2)-c2ccccc2C(c2ccc(Cl)c(Cl)c2)C3)CC1 (configuration not stated),135 to 136
13,Nc1cccc(CNC(=O)C2Cc3ccccc3N2S(=O)(=O)c2ccc(-c3cccc(C(F)(F)F)c3)cc2)c1 (configuration not stated),82
14,CC(=O)N1CCc2cc(N)cnc21,193 to 195
15,CCCCn1ncc(/C=C(\Cc2cc3c(cc2OC)OCO3)C(=O)O)c1-c1cc(Cl)c(C)cc1OCc1ccccc1C(=O)O,114 to 116
16,CCc1nc(OC)c(NC(=O)N2CCN(c3cccc(F)c3)CC2)cc1C(=O)NC(C)C(=O)Nc1cc(CO)cc(Nc2c3ccccc3nc3ccccc23)c1 (configuration not stated),208 to 210
17,CCOC(=O)CC[C@H](NC(=O)c1ccc(NCCCc2c(N(C(C)=O)C(C)=O)nc(NC(C)=O)[nH]c2=O)c(OC)c1)C(=O)OCC,73 to 84
18,OCc1ccc(CCc2ccncc2)cc1,163 to 166
19,CCCCc1cn(-c2ccccc2CC)c(=O)n1Cc1ccc(-c2ccccc2-c2nnn[nH]2)cc1,188 to 189
20,CC(C)Nc1c(-c2c(F)cc(F)cc2F)c(F)nc2nccnc12,127 to 128
21,O=C(CNC(=O)OCc1ccc([N+](=O)[O-])cc1)Nc1ccc(C(=O)OCCl)cc1,163 to 165
22,O=C(c1nnc(-c2ccccc2)o1)N1CC(Oc2ccc(CN3CC4(COC4)C3)c(Cl)c2)C1,114 to 124
23,CC1C(Cl)(Cl)C1(C)C(=O)C(N)=O (configuration not stated),87 to 89

row,Compound,melting point [°C]
1,CC(C)(C)N(CCOCC#Cc1cncs1)C(=O)C(=O)O,104 to 105
2,N#Cc1cn(-c2ccc(F)cc2F)c(=O)n(SC(Cl)(Cl)Cl)c1=O,196 to 198
3,CC1(C)OC(c2ccc(S(C)(=O)=O)cc2)=C(c2cccnc2)C1=O,164 to 166
4,Cc1ccncc1Cn1nnnc1-c1cccc(Cl)c1Cl,154 to 156
5,CC(C)(CO)NS(=O)(=O)c1cccc(NC(=O)c2cnn3c(C(F)(F)F)cc(-c4ccc(C(F)(F)F)c(F)c4)nc23)c1,221
6,Cc1c(NC(=O)CC(C)(C)C)cc2c(c1C)OC(C)(C)C2c1ccc(C=O)cc1 (configuration not stated),169 to 170
7,CC(=Cc1ccc(O)c(Cl)c1)[N+](=O)[O-],91 to 93
8,CCOC(=O)C=CC=Cc1ccc(F)c([N+](=O)[O-])c1,106 to 107
9,CCn1c(=NC(C)=O)c(-c2c(Cl)cccc2Cl)cc2cnc(SC)nc21,175 to 177
10,CC(C)(CNc1ccnc2cc(Cl)ccc12)NCc1ccc(F)c(Cl)c1,164 to 165
11,Nc1cc(C=O)ncc1F,133 to 135
12,CCCc1cc(OC)ccc1-c1noc2cc(OC)ccc12,71 to 72
13,COc1c(F)c(F)cc2c(=O)c(C(=O)O)cn(C3COC3)c12,178 to 179
14,CCCCCC(O)C1C(=O)NC(C(=O)SCC(=O)OC)(C(O)C2C=CCCC2)C1(C)O (configuration not stated),75
15,CCc1cc(OC)c(S(C)(=O)=O)cc1C(=O)N=C(N)N,192 to 195
16,O=Cc1ccc2[nH]cc(CCCCN3CC=C(c4ccccc4)CC3)c2c1,131
17,CCCCCCCCCCCCCCCCNC(=O)CC#N,95.5 to 96.5
18,Cc1nnc(-c2ccc3occc3c2)o1,159 to 160
19,CCOc1ccccc1CNC(=O)[C@@H]1CCCN(c2cccc3c2C(=O)N(Cc2ccncc2)C3=O)C1,194 to 195
20,S=C(N1CCOCC1)C1(c2ccccn2)CCCS1 (configuration not stated),139
21,CC(C)C1OP(N(CCCCCCN(C2CC(C)(C)NC(C)(C)C2)P2OCC(C)(C)C(C(C)C)O2)C2CC(C)(C)NC(C)(C)C2)OCC1(C)C (configuration not stated),95 to 97
22,O=Cc1cc2c(cc1C=O)[C@H](CO)OC2=O,144 to 145
23,COC(=O)c1cc2nc(C)n(C)c2cc1C(=O)OC,147 to 148

row,Compound,melting point [°C]
1,CON=Cc1nc(C)n2c1CN=C(c1ccccc1)c1cc(Cl)ccc1-2,193 to 195
2,Cc1ccc2ccc(N3C(=O)c4cccnc4C3OC(=O)N3CCN(C)CC3)nc2n1 (configuration not stated),226
3,COc1ccc2c(c1)/C(=C\CNC(=O)NC(C)(C)C)C(C)(C)CC2,175 to 176
4,O=C1c2ccccc2CN1CCCN1CC=C(c2ccccc2)CC1,104
5,CCN1CCC(C(C(N)=O)(c2ccccc2)c2ccccc2)C1 (configuration not stated),141 to 142
6,COc1cc2c(cc1OC)-c1c(-c3nc(-c4ccccc4)no3)c(-c3cc(C)c(O)c(C)c3)c(C)n1C(C)C2 (racemic),203 to 206
7,COc1cc(N)ccc1C(O)c1cc(C)ccn1 (configuration not stated),114 to 117
8,CCOC(=O)CSc1nnc(SCCCBr)s1,118 to 120
9,COc1nc(N)c2c(OC)c(OC)cc(Cl)c2n1,203 to 204
10,CN1CCN(c2ccc(-n3c(-c4cc(-c5cnc6[nH]ccc6c5)ccn4)cn(C)c3=O)cc2C(F)(F)F)CC1,241
11,N#CC(c1ccc(Cl)c(C(F)(F)F)c1)N1CCOCC1 (configuration not stated),73 to 74
12,CC(C)(C)CC(=O)N1C[C@@H](c2c[nH]c3ccccc23)[C@H](c2cn3c4c(cccc24)CCC3)C1,202 to 204
13,COc1ccc(-c2cccc3c2C2(COc4cc5c(cc42)OCO5)C(=O)N3Cc2ccc(C(F)(F)F)o2)cn1 (configuration not stated),174 to 176
14,CC1C=C(c2nnn[nH]2)CN(CC(=O)O)C1 (configuration not stated),150 to 152
15,Cc1cc(C(=S)CN=[N+]=[N-])ccc1O,124 to 129
16,O=C(Nc1cccnn1)N1CCN(c2ccnc(-c3ccc(F)cc3F)c2)CC1,189 to 190
17,CSc1ncc(Oc2cccnc2)c(=O)[nH]1,205 to 208
18,Nc1cc(CO)cc([N+](=O)[O-])c1-c1ccc(O)cc1,158
19,Cc1ccc(CON2C(C)(C)CC(O)CC2(C)C)cc1,92.5 to 93
20,CN1CCC(P(=O)(O)O)(P(=O)(O)O)N=C1N,308
21,COc1ccc(F)c2c1C=C(C#N)CO2,133 to 135
22,CCc1nc2c(c(C)c(C)n3nnnc23)n1CCOCCN,181 to 183
23,CCCCCCCCCCCCCCC[C@@H](O)C(Cl)C(=O)OC (some centres not stated),39 to 40

# The remaining lines, values ahead:
row,melting point [°C],Compound
1,67 to 68,CCc1nccn1N=Cc1ccccc1
2,133,COC(=O)[C@H](C)NC(=O)c1cccc([N+](=O)[O-])c1N
3,48 to 50,COc1ccccc1OCC(O)CCCl (configuration not stated)
4,90 to 91,COC(=O)CCc1nc(-c2cccc(NC(=O)OC(C)(C)C)c2)no1
5,134 to 135,CNc1cccc(NS(=O)(=O)c2ccc(N)cc2)c1
6,210 to 213,Cc1cn(Nc2ccncc2F)c2ccc(OCc3ccccc3)cc12
7,200,CC(C)Cc1nc2c(C(F)(F)F)cccc2c(O)c1C(=O)O
8,128 to 130,CCOC(=O)c1cc(O)cc(O)c1
9,125 to 126,COC=C(C(=O)OC)c1ccccc1O
10,164 to 165,Cc1ccc2nc(/C=C/c3ccccc3)n(-c3ccccn3)c2c1
11,167 to 168,CNC(CC(=O)O)c1ccccc1 (configuration not stated)
12,104 to 105,COC(=O)C1Oc2ccccc2Cc2cccc(C)c2O1 (configuration not stated)
13,166 to 167,Cc1nc(-c2ccc(C(F)(F)F)cc2)sc1CSc1ccc(OCC(=O)O)c2c1CCCC2
14,184 to 186,CC(=O)c1ccc(Oc2ncccc2C(=O)O)cc1
15,102,CCOC(=O)C(O)CSc1ccc(-c2ccccc2)cc1 (configuration not stated)
16,73 to 75,CS(=O)(=O)c1ccc(C2=C(c3ccccc3)CC2)cc1
17,262 to 263,Cc1nc(N2CCC(N(C)C)CC2)c2nc(-c3ccccc3)cc-2[nH]1

row,melting point [°C],Compound
1,149 to 151,COC(=O)C1=C(CN2CCN(C)CC2)Nc2ccnc(OC(C)C)c2C1c1ccccc1 (configuration not stated)
2,228 to 230,CN1CCC(c2c(O)cc(O)c3c(=O)cc(-c4ccccc4Cl)oc23)C1CO (configuration not stated)
3,195 to 197,Cc1nccn1-c1nc(-c2ccc(Cl)cc2)c(CCC(=O)O)o1
4,136 to 138,O=C(Cc1ccc(O)cc1)OCCC(c1ccccc1)(c1ccccc1)c1ccccc1
5,128,O=Cc1ccccc1-n1nnnc1CC(=O)C(F)(F)F
6,47 to 48,O=C(c1ccccc1)N1CC2COCC2C1 (configuration not stated)
7,160 to 161,Cc1nnc(NC(=O)C(c2ccccc2)c2ccccc2)o1
8,169 to 171,Nc1cc(C(F)(F)F)c(Br)cc1S(=O)(=O)c1ccccc1
9,86 to 88,CCCCOCc1cc2ccccc2oc1=Nc1ccccc1
10,193 to 195,O=C1NC2(CCCCC2)Sc2ccccc21
11,90 to 93,CN(C(CCn1c(=O)cc(Cl)n(C)c1=O)C(=O)NO)S(=O)(=O)c1ccc(Oc2ccccc2)cc1 (configuration not stated)
12,118 to 120,Cc1oc(-c2ccccc2)nc1CCOc1ccc(CC(F)(C(=O)NS(C)(=O)=O)c2ccccc2)cc1 (configuration not stated)
13,171 to 172,COc1ccccc1Oc1cccc2c1OC(=O)C2
14,51 to 52,C=C(c1ccccc1)c1ccc(N(C)C)cc1
15,233 to 234,O=C(O)c1cnc(-c2ccc(Cl)cc2)s1
16,223 to 225,CP(C)(=O)CN1CCN(c2n[nH]c3ccccc23)CC1
